Assay results: patent US8541588B2, “Sulfonamide derivatives” (Pfizer Limited, priority 2009, dated 2013)

target: T1, Nav1.7 (or SCN9A) channel; HEK cells stably transfected with hSCN9A (Homo sapiens, UniProt Q15858); assay: Nav1.7 block, PatchXpress 7000 automated whole-cell voltage clamp, estimated IC50 (EIC50); assay type: cell-based; conditions: PatchXpress platform; hSCN9A HEK cells held at V1/2 of inactivation; estimated IC50
T1 construct: expressed in transfected cells
T1 sequence (Q15858 whole entry): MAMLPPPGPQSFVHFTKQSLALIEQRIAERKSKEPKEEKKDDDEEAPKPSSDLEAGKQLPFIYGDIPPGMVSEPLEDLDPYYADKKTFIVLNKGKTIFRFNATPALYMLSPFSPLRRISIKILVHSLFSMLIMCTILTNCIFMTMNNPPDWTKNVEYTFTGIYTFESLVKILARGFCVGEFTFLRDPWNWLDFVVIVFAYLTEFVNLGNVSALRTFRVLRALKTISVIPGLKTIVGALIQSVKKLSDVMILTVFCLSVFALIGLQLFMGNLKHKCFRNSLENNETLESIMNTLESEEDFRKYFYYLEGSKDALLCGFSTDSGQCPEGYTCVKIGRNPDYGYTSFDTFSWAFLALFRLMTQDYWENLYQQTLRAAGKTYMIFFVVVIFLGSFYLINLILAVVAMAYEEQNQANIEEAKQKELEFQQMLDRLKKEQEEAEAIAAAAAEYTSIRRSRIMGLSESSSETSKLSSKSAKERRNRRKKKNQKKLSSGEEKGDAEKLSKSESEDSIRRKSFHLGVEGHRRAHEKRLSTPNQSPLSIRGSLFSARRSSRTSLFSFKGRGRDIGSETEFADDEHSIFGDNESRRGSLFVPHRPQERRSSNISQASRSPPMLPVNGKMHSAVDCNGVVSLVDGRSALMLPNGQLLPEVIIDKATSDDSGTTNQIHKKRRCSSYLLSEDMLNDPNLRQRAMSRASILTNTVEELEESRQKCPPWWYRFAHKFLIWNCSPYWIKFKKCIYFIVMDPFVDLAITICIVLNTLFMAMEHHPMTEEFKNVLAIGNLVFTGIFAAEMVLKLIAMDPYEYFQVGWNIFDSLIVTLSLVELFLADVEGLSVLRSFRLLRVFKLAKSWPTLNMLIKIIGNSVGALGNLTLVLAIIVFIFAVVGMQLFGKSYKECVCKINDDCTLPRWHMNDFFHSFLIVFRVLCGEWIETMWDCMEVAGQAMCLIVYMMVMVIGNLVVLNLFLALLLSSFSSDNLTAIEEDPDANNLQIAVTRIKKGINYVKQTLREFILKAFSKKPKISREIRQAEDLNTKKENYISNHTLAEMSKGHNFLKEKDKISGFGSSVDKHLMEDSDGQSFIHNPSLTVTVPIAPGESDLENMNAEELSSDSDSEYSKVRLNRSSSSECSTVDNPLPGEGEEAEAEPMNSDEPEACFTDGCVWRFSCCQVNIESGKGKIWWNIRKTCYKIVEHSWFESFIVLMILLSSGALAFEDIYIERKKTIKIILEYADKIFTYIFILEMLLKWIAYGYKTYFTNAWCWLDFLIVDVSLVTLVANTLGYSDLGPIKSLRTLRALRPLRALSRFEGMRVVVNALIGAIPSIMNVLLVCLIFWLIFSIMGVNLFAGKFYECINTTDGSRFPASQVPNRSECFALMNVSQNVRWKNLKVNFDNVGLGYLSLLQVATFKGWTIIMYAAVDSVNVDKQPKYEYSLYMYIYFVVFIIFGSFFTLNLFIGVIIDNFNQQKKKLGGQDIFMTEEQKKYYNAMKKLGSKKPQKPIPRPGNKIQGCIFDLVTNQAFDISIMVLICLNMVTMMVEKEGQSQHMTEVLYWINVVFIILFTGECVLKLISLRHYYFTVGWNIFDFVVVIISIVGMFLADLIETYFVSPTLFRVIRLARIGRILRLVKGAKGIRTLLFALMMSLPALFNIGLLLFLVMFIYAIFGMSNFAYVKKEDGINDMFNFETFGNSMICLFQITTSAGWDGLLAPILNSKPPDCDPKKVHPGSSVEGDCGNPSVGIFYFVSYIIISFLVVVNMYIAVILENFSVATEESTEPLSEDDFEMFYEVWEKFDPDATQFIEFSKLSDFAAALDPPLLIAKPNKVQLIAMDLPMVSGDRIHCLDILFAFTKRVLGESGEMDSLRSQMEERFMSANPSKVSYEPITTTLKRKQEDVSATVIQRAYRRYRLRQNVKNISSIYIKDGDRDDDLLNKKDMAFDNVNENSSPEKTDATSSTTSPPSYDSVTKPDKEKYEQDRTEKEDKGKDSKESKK

Row | IC50 | SMILES
1 | 9420 nM | N#Cc1cc(S(=O)(=O)Nc2nccs2)ccc1Oc1cc(-c2ccccc2F)nn1CC(F)(F)F [Example 188, 3-cyano-4-[5-(2-fluoro-phenyl)-2-(2,2,2-trifluoro-ethyl)-2H-pyrazol-3-yloxy]-N-thiazol-2-yl-benzenesulfonamide]
2 | 60 nM | COCc1cccc(-c2cc(F)ccc2Oc2ccc(S(=O)(=O)Nc3nccs3)cc2C#N)c1 [Example 160, 3-cyano-4-{[5-fluoro-3′-(methoxymethyl)biphenyl-2-yl]oxy}-N-1,3-thiazol-2-ylbenzenesulfonamide]
3 | 450 nM | N#Cc1cc(S(=O)(=O)Nc2ncns2)ccc1Oc1ccc(Cl)cc1Oc1ccccc1 [Example 79, 4-(4-chloro-2-phenoxyphenoxy)-3-cyano-N-1,2,4-thiadiazol-5-ylbenzenesulfonamide]
4 | 1850 nM | NC(=O)c1cc(S(=O)(=O)Nc2nccs2)ccc1Oc1ccccc1-c1ccccc1 [Example 250, 2-(biphenyl-2-yloxy)-5-(N-thiazol-2-ylsulfamoyl)benzamide]
5 | 4220 nM | CC(C)c1nn(-c2ccccc2Cl)cc1Oc1ccc(S(=O)(=O)Nc2ncns2)cc1C#N [Example 67, 4-{[1-(2-chlorophenyl)-3-isopropyl-1H-pyrazol-4-yl]oxy}-3-cyano-N-1,2,4-thiadiazol-5-ylbenzenesulfonamide]
6 | 770 nM | N#Cc1cc(S(=O)(=O)Nc2ncns2)ccc1Oc1ccccc1Oc1ccccc1 [Example 68, 3-cyano-4-(2-phenoxyphenoxy)-N-1,2,4-thiadiazol-5-ylbenzenesulfonamide]
7 | 110 nM | N#Cc1cc(S(=O)(=O)Nc2nccs2)ccc1Oc1ccc(Cl)cc1-c1ccnn1-c1ccccc1 [Example 171, 4-(4-chloro-2-(1-phenyl-1H-pyrazol-5-yl)phenoxy)-3-cyano-N-(thiazol-2-yl)benzenesulfonamide]
8 | >10000 nM | N#Cc1cc(S(=O)(=O)Nc2nccs2)ccc1Oc1ccccc1-c1ccno1 [Example 174, 3-cyano-4-(2-(isoxazol-5-yl)phenoxy)-N-(thiazol-2-yl)benzenesulfonamide]

same assay, conditions: estimated IC50; hSCN9A HEK cells, PatchXpress platform; Examples 283-814

Row | SMILES | IC50
9 | O=S(=O)(Nc1ncns1)c1cc(Cl)c(Oc2ccc(F)cc2-c2ccn[nH]2)cc1F [Example 620, 5-chloro-2-fluoro-4-[4-fluoro-2-(1H-pyrazol-5-yl)phenoxy]-N-1,2,4-thiadiazol-5-ylbenzenesulfonamide] | 4.8 nM
10 | N#Cc1cc(S(=O)(=O)Nc2ncc(Cl)s2)ccc1Oc1ccc(Cl)cc1-c1ccnn1C1CNC1 [Example 559, 4-[2-(1-azetidin-3-yl-1H-pyrazol-5-yl)-4-chlorophenoxy]-N-(5-chloro-1,3-thiazol-2-yl)-3-cyanobenzenesulfonamide] | 0.7 nM
11 | O=S(=O)(Nc1cscn1)c1cc(Cl)c(Oc2cc(C(F)(F)F)ccc2-c2cccc(CO)c2)cc1F [Example 663, 5-chloro-2-fluoro-4-{[3′-(hydroxymethyl)-4-(trifluoromethyl)biphenyl-2-yl]oxy}-N-1,3-thiazol-4-ylbenzenesulfonamide] | 130 nM
12 | O=S(=O)(Nc1nncs1)c1cc(F)c(Oc2ccc(Cl)cc2-c2ccn[nH]2)cc1F [Example 302, 4-[4-chloro-2-(1H-pyrazol-5-yl)phenoxy]-2,5-difluoro-N-1,3,4-thiadiazol-2-ylbenzenesulfonamide] | 160 nM
13 | N#Cc1cc(S(=O)(=O)Nc2ncns2)ccc1Oc1ccc(-n2cc(CO)cn2)cc1 [Example 288, 3-cyano-4-{4-[4-(hydroxymethyl)-1H-pyrazol-1-yl]phenoxy}-N-1,2,4-thiadiazol-5-ylbenzenesulfonamide] | >1000 nM
14 | Cn1nccc1-c1cc(Cl)ccc1Oc1cc(F)c(S(=O)(=O)Nc2cscn2)cc1F [Example 606, 4-[4-chloro-2-(1-methyl-1H-pyrazol-5-yl)phenoxy]-2,5-difluoro-N-1,3-thiazol-4-ylbenzenesulfonamide] | 130 nM
15 | N#Cc1cc(S(=O)(=O)Nc2ncns2)ccc1Oc1ccc(-c2nc(CO)co2)cc1 [Example 665, 3-Cyano-4-{4-[4-(hydroxymethyl)-1,3-oxazol-2-yl]phenoxy}-N-1,2,4-thiadiazol-5-ylbenzenesulfonamide] | >1000 nM
16 | CN1CCC(c2cc(Cl)ccc2Oc2cc(F)c(S(=O)(=O)Nc3ncns3)cc2F)CC1 [Example 734, 4-[4-chloro-2-(1-methylpiperidin-4-yl)phenoxy]-2,5-difluoro-N-1,2,4-thiadiazol-5-ylbenzenesulfonamide] | 53 nM
17 | N#Cc1cc(S(=O)(=O)Nc2ncc(F)s2)ccc1Oc1ccc(Cl)c(Cn2ccnn2)c1 [Example 533, 4-[4-chloro-3-(1H-1,2,3-triazol-1-ylmethyl)phenoxy]-3-cyano-N-(5-fluoro-1,3-thiazol-2-yl)benzenesulfonamide] | 780 nM
18 | Cn1nccc1-c1cc(Cl)ccc1Oc1ccc(S(=O)(=O)Nc2ccc(F)cn2)cc1F [Example 514, 4-[4-chloro-2-(1-methyl-1H-pyrazol-5-yl)phenoxy]-3-fluoro-N-(5-fluoropyridin-2-yl)benzenesulfonamide] | 1100 nM
19 | Cn1nccc1-c1cc(Br)ccc1Oc1ccc(S(=O)(=O)Nc2ncns2)cc1C(N)=O [Example 735, 2-[4-bromo-2-(1-methyl-1H-pyrazol-5-yl)phenoxy]-5-[(1,2,4-thiadiazol-5-ylamino)sulfonyl]benzamide] | 1000 nM

More lines, now with the values ahead:

Row | IC50 | SMILES
20 | 17 nM | Cn1nccc1-c1cc(I)ccc1Oc1ccc(S(=O)(=O)Nc2nccs2)cc1C#N [Example 312, 3-cyano-4-[4-iodo-2-(1-methyl-1H-pyrazol-5-yl)phenoxy]-N-1,3-thiazol-2-ylbenzenesulfonamide]
21 | >3000 nM | Cc1ccc(NS(=O)(=O)c2ccc(Oc3ccccc3-c3ccccc3)c(C#N)c2)nc1 [Example 424, 4-(biphenyl-2-yloxy)-3-cyano-N-(5-methylpyridin-2-yl)benzenesulfonamide]
22 | 1100 nM | Cn1nc(C(F)(F)F)cc1-c1cc(F)cc(Oc2ccc(S(=O)(=O)Nc3nccs3)cc2C#N)c1 [Example 653, 3-cyano-4-{3-fluoro-5-[1-methyl-3-(trifluoromethyl)-1H-pyrazol-5-yl]phenoxy}-N-1,3-thiazol-2-ylbenzenesulfonamide]
23 | 1100 nM | COCc1cc(C(F)F)nn1-c1cccc(Oc2ccc(S(=O)(=O)Nc3nccs3)cc2C#N)c1 [Example 654, 3-cyano-4-{3-[3-(difluoromethyl)-5-(methoxymethyl)-1H-pyrazol-1-yl]phenoxy}-N-1,3-thiazol-2-ylbenzenesulfonamide]
24 | >1000 nM | Cn1cnnc1-c1cc(Cl)ccc1Oc1ccc(S(=O)(=O)Nc2nccs2)cc1F [Example 306, 4-[4-chloro-2-(4-methyl-4H-1,2,4-triazol-3-yl)phenoxy]-3-fluoro-N-1,3-thiazol-2-ylbenzenesulfonamide]
25 | 39 nM | N#Cc1cc(S(=O)(=O)Nc2nccs2)ccc1Oc1ccc(-c2cc(C(F)(F)F)nn2C2CNC2)cc1 [Example 558, 4-{4-[1-azetidin-3-yl-3-(trifluoromethyl)-1H-pyrazol-5-yl]phenoxy}-3-cyano-N-1,3-thiazol-2-ylbenzenesulfonamide]

same assay, conditions: estimated IC50; hSCN9A HEK cells, PatchXpress platform; Examples 815-1040

Row | SMILES | IC50
26 | COCCn1ccc(-c2cc(Cl)ccc2Oc2cc(F)c(S(=O)(=O)Nc3nncs3)cc2Cl)n1 [Example 819, 5-chloro-4-{4-chloro-2-[1-(2-methoxyethyl)-1H-pyrazol-3-yl]phenoxy}-2-fluoro-N-1,3,4-thiadiazol-2-ylbenzenesulfonamide] | 2400 nM
27 | Nc1[nH]ncc1-c1cc(Cl)ccc1Oc1ccc(S(=O)(=O)Nc2ncns2)cc1Cl [Example 913, 4-[2-(5-amino-1H-pyrazol-4-yl)-4-chlorophenoxy]-3-chloro-N-1,2,4-thiadiazol-5-ylbenzenesulfonamide] | 0.9 nM
28 | Cn1ccc(NS(=O)(=O)c2ccc(Oc3ccc(Cl)cc3-c3ccnn3C)c(C#N)c2)n1 [Example 887, 4-[4-chloro-2-(1-methyl-1H-pyrazol-5-yl)phenoxy]-3-cyano-N-(1-methyl-1H-pyrazol-3-yl)benzenesulfonamide] | 9000 nM
29 | Cc1cc(NS(=O)(=O)c2ccc(Oc3ccc(Cl)cc3-c3ccnn3C)c(C#N)c2)no1 [Example 883, 4-[4-chloro-2-(1-methyl-1H-pyrazol-5-yl)phenoxy]-3-cyano-N-(5-methylisoxazol-3-yl)benzenesulfonamide] | 14000 nM
30 | O=S(=O)(Nc1ncns1)c1cc(F)c(Oc2ccc(C(F)(F)F)cc2-c2ccc(Cl)nn2)cc1F [Example 904, 4-[2-(6-chloropyridazin-3-yl)-4-(trifluoromethyl)phenoxy]-2,5-difluoro-N-1,2,4-thiadiazol-5-ylbenzenesulfonamide] | 390 nM
31 | N#Cc1cc(S(=O)(=O)Nc2ncns2)ccc1Oc1ccc(I)cc1-c1cccc(CN2CCC2)c1 [Example 815, 4-{[3′-(azetidin-1-ylmethyl)-5-iodobiphenyl-2-yl]oxy}-3-cyano-N-1,2,4-thiadiazol-5-ylbenzenesulfonamide] | 0.6 nM
32 | Nc1nccc(-c2cc(Cl)ccc2Oc2cc(F)c(S(=O)(=O)Nc3ncns3)cc2F)n1 [Example 849, 4-[2-(2-aminopyrimidin-4-yl)-4-chlorophenoxy]-2,5-difluoro-N-1,2,4-thiadiazol-5-ylbenzenesulfonamide] | 120 nM
33 | N#Cc1cc(S(=O)(=O)Nc2ncns2)ccc1Oc1cc(F)c(OC(F)(F)F)cc1-c1ccnnc1 [Example 958, 3-cyano-4-[5-fluoro-2-pyridazin-4-yl-4-(trifluoromethoxy)phenoxy]-N-1,2,4-thiadiazol-5-ylbenzenesulfonamide] | 5.9 nM

Second part, the compound after the results:

Row | IC50 | SMILES
34 | 1600 nM | Cn1nccc1-c1cc(Cl)ccc1Oc1ccc(S(=O)(=O)Nc2cccnn2)cc1C#N [Example 915, 4-[4-chloro-2-(1-methyl-1H-pyrazol-5-yl)phenoxy]-3-cyano-N-pyridazin-3-ylbenzenesulfonamide]
35 | >10000 nM | N#Cc1cc(S(=O)(=O)Nc2nccs2)ccc1Oc1ccc(-c2cnn(CC(F)(F)F)c2N)cc1 [Example 986, 4-{4-[5-amino-1-(2,2,2-trifluoroethyl)-1H-pyrazol-4-yl]phenoxy}-3-cyano-N-1,3-thiazol-2-ylbenzenesulfonamide]
